Values joined by “and” are separate entries in the source; they are usually repeats but may differ in a detail not shown here. Equal entries are not always repeated.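 Interpolation was linear, between the two tested concentrations surrounding the appropriate level; five concentrations were tested over 48 hours in 96-well plates. GI50 = concentration required for 50% inhibition of growth. At the TGI there is no net growth.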 A value given as a limit tells only on which side of the number the result lay.

Common to all, as to experiment: NCI-60 cell line screen, 48 h
Experiment [1] has as its system ACHN renal.
Experiment [2] concerns NCI/ADR-RES ovarian.
Experiment [3] relates to OVCAR-3 ovarian.
Experiment [4] relates to RXF 393 renal.
For experiment [5], the system named is SF-539 CNS.
The subject of experiment [6] is SW-620 colon.
For experiment [7], the system named is T-47D breast.
In experiment [8] the test system is UACC-257 melanoma.

For the compound `O=c1c(Cl)c(Cl)c(=O)c2sc3cc(Cl)ccc3[nH]c1=2`, the TGI in experiment [1] was above 100 µM; in experiment [2] it was 20.1 µM; in experiment [3], 30.7 µM; in experiment [4], above 100 µM; in experiment [5], above 100 µM; in experiment [6] it was 52.1 µM. In addition, the TGI is above 100 µM in experiment [7] and 35.3 µM in experiment [8].
`Cn1c2ccc(Br)cc2c2c3c(c4c5ccccc5[nH]c4c21)C(=O)N(O)C3=O`: the GI50 in experiment [1] was 0.0448 µM; in experiment [2], 0.357 µM; in experiment [3], 0.191 µM; in experiment [4], 0.158 µM; in experiment [5], 0.073 µM; in experiment [6] it was 0.0787 µM. The GI50 in experiment [7] was 0.109 µM. Besides, the TGI was 0.244 µM in experiment [1]; above 100 µM in experiment [2]; 0.452 µM in experiment [3]; 0.329 µM in experiment [4]; 0.217 µM in experiment [5]; 0.394 µM in experiment [6]. In experiment [7], this compound showed a TGI of 0.737 µM.
For the compound `SCCSCCCSCCS`, the TGI in experiment [2], in experiment [3], in experiment [5], in experiment [6], in experiment [7] and in experiment [8] was above 100 µM throughout.
As to `COc1ccc(/C=N\Nc2ccc([N+](=O)[O-])cn2)cc1OC`, the GI50 was above 100 µM in experiment [2]; 3.65 µM in experiment [4]; 4.37 µM in experiment [5]; above 100 µM in experiment [6]; above 100 µM in experiment [8]. Moreover, the TGI in experiment [2] was above 100 µM; in experiment [4], 16.7 µM; in experiment [5], 23.4 µM; in experiment [6] it was above 100 µM; in experiment [8] it was above 100 µM.
As to `Cc1cc(C)c(Cn2cnc3c(Cl)ncnc32)c(C)c1CCl`, the GI50 in experiment [1] was 0.233 µM; in experiment [2], above 100 µM; in experiment [3] it was 18.1 µM; in experiment [4], above 100 µM; in experiment [5], above 100 µM; in experiment [6] it was 92.7 µM. The GI50 in experiment [7] was 24.9 µM. Besides, the TGI was 14.1 µM in experiment [1]; above 100 µM in experiment [2]; 53.9 µM in experiment [3]; above 100 µM in experiment [4]; above 100 µM in experiment [5]; above 100 µM in experiment [6]. This compound had a TGI in experiment [7] of 95.3 µM.
In the case of `C=C(Nc1ccc([N+](=O)[O-])cc1[N+](=O)[O-])c1c/c(=N\NC(N)=S)c2ccccc2o1`, the TGI in experiment [1] was above 100 µM; in experiment [2], above 100 µM; in experiment [3], 86.1 µM; in experiment [4] it was above 100 µM; in experiment [5] it was 55.7 µM; in experiment [6] it was above 100 µM. Further, the TGI in experiment [8] is above 100 µM.
Turning to `CO[C@H](C(=O)[C@@H](O)[C@@H](C)O)[C@@H]1Cc2cc3cc(OC4CC(OC5CC(O)C(O)C(C)O5)C(O)C(C)O4)c(C)c(O)c3c(O)c2C(=O)[C@H]1OC1CC(OC2CC(OC3CC(C)(O)C(O)C(C)O3)C(O)C(C)O2)C(O)C(C)O1` (stereo partly specified), the GI50 was 23 µg/mL and 0.633 µg/mL in experiment [2]; 0.0235 µg/mL and 0.0222 µg/mL in experiment [3]; 0.0201 µg/mL in experiment [4]; 0.0233 µg/mL and 0.0157 µg/mL in experiment [5]; 0.0264 µg/mL and 0.0232 µg/mL in experiment [6]; 0.0259 µg/mL and 0.0361 µg/mL in experiment [8].
On to `CCN(CC)CCCC(C)N=C(C1=C(C(=NC(C)CCCN(CC)CC)c2cccc(OC)c2)C(=O)NC1=O)c1cccc(OC)c1` (stereo unspecified), for which the GI50 in experiment [2] is 2.84 µM; in experiment [3], 1.45 µM; in experiment [4], 1.11 µM; in experiment [6], 0.71 µM; in experiment [7] it was 2.02 µM; in experiment [8] it was 0.952 µM. For the same compound, the TGI in experiment [2] amounted to 12.2 µM; in experiment [3], 4.11 µM; in experiment [4] it was 4.15 µM; in experiment [6], 2.38 µM; in experiment [7], 10.4 µM; in experiment [8], 1.75 µM.
Regarding `COc1cccc(/C=C/C(=O)c2ccc(Cl)cc2Cl)c1`, the GI50 in experiment [1] was 14.3 µM; in experiment [2], 11.6 µM; in experiment [3] it was 10.9 µM; in experiment [4], 9.44 µM; in experiment [5] it was 12.2 µM; in experiment [6], 1.82 µM. Moreover, the GI50 in experiment [8] was 9.33 µM. Further, the TGI in experiment [1] amounted to 39.2 µM; in experiment [2], 33.1 µM; in experiment [3] it was 25.2 µM; in experiment [4], 20.5 µM; in experiment [5], 23 µM; in experiment [6], 7.62 µM. Also, in experiment [8], the TGI stood at 17.4 µM.
`C=C1CCC2C(C)(COC(=O)CC)C(OC(=O)CC)CCC2(C)C1C/C=C1/C(=O)OCC1OC(=O)CC` (stereo unspecified): the GI50 is 1.74 µM in experiment [1]; 2.84 µM in experiment [2]; 1.77 µM in experiment [3]; 1.66 µM in experiment [4]; 1.84 µM in experiment [5]; 1.17 µM in experiment [6]. For the same compound, the GI50 in experiment [8] was 1.33 µM. Besides, the TGI in experiment [1] worked out at 3.24 µM; in experiment [2], 10.5 µM; in experiment [3], 3.15 µM; in experiment [4], 3.05 µM; in experiment [5], 4.17 µM; in experiment [6], 2.44 µM. The TGI in experiment [8] was 2.7 µM.
With `COc1cccc(NC(=O)c2sc3nc4c(cc3c2N)C(=O)CCC4)c1`, the GI50 was 0.568 µM in experiment [1]; 0.102 µM in experiment [2]; 0.0612 µM in experiment [3]; 0.084 µM in experiment [4]; 0.108 µM in experiment [5]; 0.0571 µM in experiment [6]. The TGI in experiment [1] is above 100 µM; in experiment [2], above 45.9 µM; in experiment [3] it was 0.653 µM; in experiment [4] it was 1.51 µM; in experiment [5], 0.587 µM; in experiment [6], above 100 µM.
As to `N#CCN/C=C\C(=O)c1ccc(Cl)cc1`, the GI50 in experiment [2] is 28.9 µM; in experiment [3], 17.7 µM; in experiment [4], 40.8 µM; in experiment [5], 27 µM; in experiment [6], 37.8 µM; in experiment [7], 33.9 µM. In addition, the GI50 in experiment [8] is 31.9 µM. Also, the TGI in experiment [2] was 79.5 µM; in experiment [3], 59.1 µM; in experiment [4], above 100 µM; in experiment [5], 68.3 µM; in experiment [6], above 100 µM; in experiment [7], above 100 µM. The TGI in experiment [8] is above 100 µM.

(Values after PubChem BioAssay (NCI).)
